The record followed here is ChEMBL document CHEMBL1201862, “PubChem BioAssay data set” (2004).

The source made the active and inactive calls.

In one test the test system is HEK293. As to the kind of experiment: viability loss in HEK293T cells – cell-based, ATP luminescence, cherry-pick samples, cytotoxicity control, dose response (AID 687005).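 Further: cells exposed to compound for 48 hours.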 Format: functional. To be noted: Homo sapiens.
Test [1] in a line: HEK293 Cytotoxicity Assay Measured in Cell-Based System Using Plate Reader - 7071-01_Inhibitor_Dose_CherryPick_Activity_Set2. Format: functional.
A short description of test [2]: IC50 of insulin release inhibition, rat insulinoma INS-1E line, 5 mM glucose, cell-based (AID 1117331). Format: functional.
Test [3] is described as follows: inhibition of ADAM10 peptide cleavage – biochemical, FRET peptide substrate, recombinant human ADAM10, selectivity assay for ADAM17 exosite inhibitor project, dose response (AID 743259).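 Further: ADAM10 enzyme cleaving a FRET peptide substrate.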
The target in test [4] is Disintegrin and metalloproteinase domain-containing protein 17 (Homo sapiens, UniProt P78536). Description: exosite inhibitors of ADAM17, dose response, biochemical (AID 743260).
The nature of test [5]: cytotoxicity in MITF-independent A375 cells – cell-based, CellTiter-Glo luminescence, dry powder, set 4, counter-screen for MITF inhibitor project, dose response (AID 624364).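 Further: A375 melanoma cells are MITF independent so this is a counter screen.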 The test is classed as functional. Particulars: A-375.
A short description of test [6]: viability loss in MITF-independent A375 cells – cell-based, CellTiter-Glo luminescence, dry powder, set 2, counter-screen for MITF inhibitor project, dose response (AID 624489).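 Further: actives are compounds lowering A375 viability meaning general cytotoxicity.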 The test is classed as functional. Particulars: A-375.
A short description of test [7]: MITF: Counter assay: A375 proliferation Measured in Cell-Based System Using Plate Reader - 2084-03_Inhibitor_Dose_DryPowder_Activity_Set8. The test is classed as functional. To be noted: A-375.
A short description of test [8]: inhibitors of TRPM1-promoter reporter in SK-MEL-5 – cell-based, luciferase, dry powder, set 8, MITF inhibitor project, dose response (AID 624430). The test is classed as functional.
The nature of test [9]: MITF Orthogonal Assay: SK-MEL-5 CTG Assay Measured in Cell-Based System Using Plate Reader - 2084-02_Inhibitor_Dose_DryPowder_Activity_Set7. The test is classed as functional.
Test [10] has as its target G-protein coupled receptor 183 (Homo sapiens, UniProt P32249). Description: SAR confirmation of small molecule antagonists of the EBI2 receptor via a luminescent beta-arrestin assa. Format: functional.
Test [11] concerns the target T1, Dual specificity protein phosphatase 6 (Rattus norvegicus, UniProt Q64346).
T1 sequence (Q64346 whole entry): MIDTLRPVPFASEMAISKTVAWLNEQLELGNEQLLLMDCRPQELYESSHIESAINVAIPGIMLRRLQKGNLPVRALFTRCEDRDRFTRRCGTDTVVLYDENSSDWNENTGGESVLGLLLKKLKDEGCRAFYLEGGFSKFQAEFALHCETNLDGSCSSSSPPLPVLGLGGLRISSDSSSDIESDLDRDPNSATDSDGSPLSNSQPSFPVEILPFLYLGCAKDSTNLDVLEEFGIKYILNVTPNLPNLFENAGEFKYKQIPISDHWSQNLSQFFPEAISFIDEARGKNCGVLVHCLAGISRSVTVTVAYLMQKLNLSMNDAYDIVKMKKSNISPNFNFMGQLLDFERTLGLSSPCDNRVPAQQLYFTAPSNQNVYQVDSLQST
Description: inhibition of rat DUSP6 enzyme activity – biochemical, in vitro, primary screen (AID 425).

Test [12] in a line: glucagon-like peptide-1 release potency in STC-1, concentration-response, half-maximal inhibitory concentration in the STC-1 line (AID 1117345). Format: functional, cell-based.
A short description of test [13]: Potency on glucagon-like peptide 1 release, dose-response in NCI-H716 cell line, half maximal inhibitory concentration (AID 1117344). Format: functional, cell-based.
The nature of test [14]: Reduced DLD-1 viability, concentration-response, CellTiter-Glo luminescence (AID 1117352). The test is classed as functional.
Test [15] in a line: SNU-C1 cell viability reduction, dose response, CellTiter-Glo luminescence (AID 1117323). Format: functional, cell-based.
The nature of test [16]: CellTiter-Glo luminescence survival assay, SW480 colon tumor line, concentration-response curve, half-maximal inhibitory concentration (AID 1117338). Format: functional.
A short description of test [17]: cytotoxicity toward HT-29 cells – cell-based, CellTiter-Glo luminescence, IC50, dose response (AID 1117330). The test is classed as functional. In general terms: Cellular ATP, detected with luciferase, serves as a proxy for viable cell number.
Test [18] in a line: cytotoxicity toward HCT116 cells – cell-based, CellTiter-Glo luminescence, IC50, dose response (AID 1117332). Format: functional. Particulars: HCT-116.

Chain of G-protein coupled receptor 183 (P32249 whole entry): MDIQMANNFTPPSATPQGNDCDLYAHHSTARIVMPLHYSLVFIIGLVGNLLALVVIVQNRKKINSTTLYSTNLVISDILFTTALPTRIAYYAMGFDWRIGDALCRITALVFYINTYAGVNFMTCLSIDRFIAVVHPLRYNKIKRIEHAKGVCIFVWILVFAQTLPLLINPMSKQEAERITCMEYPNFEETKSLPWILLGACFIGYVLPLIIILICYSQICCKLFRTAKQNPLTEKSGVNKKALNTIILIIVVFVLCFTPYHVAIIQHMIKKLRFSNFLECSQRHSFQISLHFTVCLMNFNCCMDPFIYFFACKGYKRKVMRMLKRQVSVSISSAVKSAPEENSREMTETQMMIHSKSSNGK
Chain of Disintegrin and metalloproteinase domain-containing protein 17 (P78536 whole entry, the tested form may be a part): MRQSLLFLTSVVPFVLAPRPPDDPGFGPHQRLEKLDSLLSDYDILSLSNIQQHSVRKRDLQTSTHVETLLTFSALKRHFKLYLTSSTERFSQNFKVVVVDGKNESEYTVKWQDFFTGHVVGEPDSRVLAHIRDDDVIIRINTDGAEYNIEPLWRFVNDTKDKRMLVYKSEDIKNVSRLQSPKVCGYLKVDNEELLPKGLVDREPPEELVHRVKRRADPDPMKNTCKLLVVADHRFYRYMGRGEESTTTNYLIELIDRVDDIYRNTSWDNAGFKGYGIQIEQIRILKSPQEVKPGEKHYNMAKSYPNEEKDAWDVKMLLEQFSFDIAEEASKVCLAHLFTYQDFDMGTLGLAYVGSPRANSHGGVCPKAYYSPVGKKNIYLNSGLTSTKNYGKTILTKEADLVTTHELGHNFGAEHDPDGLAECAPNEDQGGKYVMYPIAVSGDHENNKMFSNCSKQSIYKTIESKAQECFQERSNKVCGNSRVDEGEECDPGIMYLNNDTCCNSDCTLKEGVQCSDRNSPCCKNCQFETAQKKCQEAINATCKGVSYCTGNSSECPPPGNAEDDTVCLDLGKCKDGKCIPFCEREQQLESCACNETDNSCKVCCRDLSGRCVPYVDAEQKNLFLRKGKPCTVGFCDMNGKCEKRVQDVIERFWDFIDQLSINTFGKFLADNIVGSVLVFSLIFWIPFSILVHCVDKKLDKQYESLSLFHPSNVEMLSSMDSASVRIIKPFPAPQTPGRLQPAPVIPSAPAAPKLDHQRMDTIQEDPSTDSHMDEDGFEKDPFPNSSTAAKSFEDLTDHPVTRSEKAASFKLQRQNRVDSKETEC

As for `O=C(Nc1cccc(F)c1)N[C@H]1CC[C@H](CCNS(=O)(=O)c2cccc(Cl)c2)O[C@@H]1CO`, the AC50 (in the test with HEK293; in test [1]) was 26 µM (active) each time.

As for `CCC(CN)=C(c1ccccc1)c1ccccc1`, the IC50 in test [2] is 10.8 µM (inactive).

As for `COC(=O)[C@H](CC(C)C)N(CCc1cn(Cc2ccccc2)nn1)S(=O)(=O)c1ccccc1Br`, the IC50 in [3] and in [4] was > 69.5 µM (inactive) each time.

For `CN1CCN(C2=C(NC(=O)c3ccc(Br)cc3)C(=O)c3ccccc3C2=O)CC1`, the AC50 in [5] is 23.5 µM (active); in test [6] it was 8.99 µM (active).

Regarding `O=C1C(Nc2cccc(Br)c2)=C(N2CCCC2)C(=O)c2ccccc21`, the AC50 in test [7] is > 70 µM (inactive); in [8], 13.1 µM (active); in test [9] it was 11.8 µM (active).

Regarding `O=C(/C=C/c1ccc(F)cc1)N1CCN(S(=O)(=O)c2cccc(Cl)c2)CC1`, the IC50 in test [10] is 0.0115 µM (active).

On to `O=C(/C=C/c1ccccc1F)N1CCN(S(=O)(=O)c2ccc(Br)cc2)CC1`, for which the IC50 in test [10] was 0.252 µM (active).

As to `O=C1C(Nc2ccc(Cl)cc2)=C(N2CCCCC2)C(=O)c2ccccc21`, the AC50 is 26.8 µM (active) in test [7], 2.87 µM (active) in [8] and 4.38 µM (active) in test [9].

Turning to `C[C@H]1C[C@H]2[C@@H]3CCC4=CC(=O)C=C[C@]4(C)[C@@]3(Cl)[C@@H](O)C[C@]2(C)[C@@]1(O)C(=O)CO` [BECLOMETHASONE], in test [11], the IC50 is > 100 µM (not active).

As to `CCCCCCCCCCCC[N+](C)(C)CCOc1ccccc1` [DOMIPHEN BROMIDE], the IC50 in test [12] was > 40 µM (inactive); in test [13] it was 16.2 µM (inactive).

For the compound `CC(C(=O)O)c1cccc(C(=O)c2ccccc2)c1` (stereo unspecified) [KETOPROFEN], the IC50 in test [14] is 8.64 µM (inactive); in [15] it was 3.8 µM (active); in test [16], 10.3 µM (inactive); in [17], 14.4 µM (inactive); in [18] it was 10.5 µM (inactive).

With `Cc1cc(OI)c(C(C)C)cc1-c1cc(C(C)C)c(OI)cc1C` [THYMOL IODIDE], the IC50 in test [2] is > 33.3 µM (inactive); in test [12], 15.1 µM (inactive); in [13], > 40 µM (inactive).

A word on the AC50: it is the midpoint of the concentration-response curve, whichever way the signal moves. What is called IC50 is the midpoint of a concentration-inhibition curve.
